Several values for one entry are separate records, joined by “and”; a condition that tells them apart may be missing. Identical values can stand only once. Entries after “also recorded” stand apart in the source; their conditions may differ. Like-named read-outs stand apart in the source and are kept apart here.

This note sets out measurements from article PMC11478212, “Antitumoral and Antiproliferative Potential of Synthetic Derivatives of Scorpion Peptide IsCT1 in an Oral Cavity Squamous Carcinoma Model” (Molecules, 2024).

Common to all, as to assay type: cell-based
One experiment relates to FN1 cells. Description: MTT cell viability. As to conditions: FN1 normal human fibroblasts, treatment 24 and 48 h (time of IC50 not given), absorbance 540 nm, N/IC50 = no IC50 for the tested concentrations, no toxicity. The procedure: (§1) Cell survival was assessed using an MTT assay. Tumor (SSC-9 and SSC-25) and normal cells (FN1 and J-774) were incubated in 96-well plates at a density of 10^5 cells/mL for 24 h. Subsequently, treatments were administered as described in Table 1 for 24 and 48 h. After the treatment period, the supernatant was aspirated and 100 μL of MTT at a concentration of 5 mg/mL (Calbiochem—Darmstadt, Germany) was added to the plate and incubated for 3 h at 37 °C with 5% CO2. Afterward, the content was removed and 200 μL of methanol was added to dissolve the formazan crystals. Absorbance was then measured at a wavelength of 540 nm using a microplate reader. The hemolysis assay was performed as previously reported.

For a further experiment, the system named is J774 cells. The experiment can be described thus: MTT cell viability. As to conditions: J774 normal macrophages, treatment 24 and 48 h (time of IC50 not given), absorbance 540 nm, N/IC50 = no IC50 for the tested concentrations, no toxicity. The procedure: as §1
A further experiment has as its system SCC-25 cells. Description: MTT cell viability. As to conditions: treatment 24 and 48 h (time of IC50 not given), absorbance 540 nm, N/IC50 = no IC50 for the tested concentrations, no toxicity, read-out: IC50. The procedure: as §1
The test system of the next experiment is SCC-9 cells. The experiment can be described thus: MTT cell viability. As to conditions: treatment 24 and 48 h (time of IC50 not given), absorbance 540 nm, N/IC50 = no IC50 for the tested concentrations, no toxicity, read-out: IC50. The procedure:
as §1

The test system of experiment [1] is SCC-25 tumor cells. Description: CFSE-DA proliferation assay (flow cytometry). As to conditions: 24 h, IsCT-P and AC-AFPK-IsCT1 at IC50, other peptides at 100 µM, mean ± SD of three independent experiments. The protocol: (§2) Figure 2 Assessment of the cellular proliferative index was conducted using flow cytometry following a 24 h treatment with synthetic analogs of the IsCT1 peptide. The treatments were performed using the IC50 values obtained for the IsCT-P and AC-AFPK-IsCT1 peptides and at a concentration of 100 µM for the other peptides. (a) Representative histograms of the proliferative index were analyzed using WinMDI 5.0 software. Each color in the histogram represents a new cell population. (b) Bar graphs represent the mean ± SD of the proliferative index for SCC-9 tumor cells derived from three independent experiments. (c) Bar graphs display the mean ± SD of the proliferative index for SCC-25 tumor cells based on three independent experiments. (d) Bar graphs represent the mean ± SD of the proliferative index for normal FN1 cells from three independent experiments. (e) Bar graphs illustrate the mean ± SD of the proliferative index for normal J774 cells from three independent experiments. Statistical differences were determined using ANOVA and Tukey–Kramer multiple comparison tests. Significance levels are indicated as * p < 0.05, ** p < 0.01, and *** p < 0.001, with ‘ns’ denoting not significant.
(§3) Tumor (SSC-9 and SSC-25) and normal cells (FN1 and J-774) were plated in 24-well plates at a density of 10^5 cells/mL for 24 h. The treated and control groups were incubated with the carboxyfluorescein marker (CFSE-DA Thermo Fisher (Waltham, MA, USA), KITC34571). CFSE-DA was diluted in PBS + 0.1% human albumin and added to the cell-containing medium. After 24 h of treatment, the cells were trypsinized, transferred to a conical tube, and centrifuged at 1500 rpm for 5 min. The supernatant was discarded and the pellet was resuspended in 1 mL of 4% paraformaldehyde in PBS for 30 min. The cells were then centrifuged, the supernatant was discarded, and the pellet was resuspended in 200 μL of FACS buffer. Readings were performed on a FACScanto flow cytometer (BD, Franklin Lakes, NJ, USA) with the number of events set to 10,000 events, and histograms were acquired and analyzed using ModFit LT 5.0 software.

Experiment [2] relates to SCC-9 tumor cells. The experiment can be described thus: CFSE-DA proliferation assay (flow cytometry). Conditions: 24 h, IsCT-P and AC-AFPK-IsCT1 at IC50, other peptides at 100 µM, mean ± SD of three independent experiments. The protocol:
as §2, §3

The subject of experiment [3] is SCC-25 tumor cells. Description: Mitochondrial membrane electrical potential (ΔΨm) by flow cytometry. As to conditions: 24 h, IsCT-P and AC-AFPK-IsCT1 at IC50, others 100 µM, MitoRed, mean ± SD of three independent experiments. The protocol:
(§4) Figure 4 Analysis of mitochondrial electrical potential (ΔΨm) using flow cytometry following a 24 h treatment with synthetic analogs of IsCT1 peptides. The indicated cells were treated at the IC50 values obtained for the IsCT-P and AC-AFPK-IsCT1 peptides and at a concentration of 100 µM for the other peptides. (a) Representative histograms of cell distribution according to ΔΨm; (b) bar graph showing ΔΨm expressed as the mean ± SD of three independent experiments of SCC-9 tumor cells; (c) bar graph showing ΔΨm expressed as the mean ± SD of three independent experiments of SCC-25 tumor cells; (d) bar graph showing ΔΨm expressed as the mean ± SD of three independent experiments of normal FN1 cells; (e) bar graph showing ΔΨm expressed as the mean ± SD of three independent experiments of normal J774 cells. Statistical differences were obtained using ANOVA and Tukey–Kramer multiple comparison tests. * p < 0.05, ** p < 0.01, and *** p < 0.001 denote significance. ns = not significant.
(§5) Tumor (SSC-9 and SSC-25) and normal cells (FN1 and J-774) were subjected to treatment for a period of 24 h at the peptides’ IC50 concentrations. After treatment, the cells were trypsinized, centrifuged at 1200 rpm for 5 min, the supernatant was discarded, and the cells were resuspended in complete medium containing MitoRed™ (Sigma-Aldrich, USA) (200 nM/L). Subsequently, the samples were incubated in an incubator at 37 °C with 5% CO2 for 30 min. The tubes were then centrifuged, the supernatant was discarded, and the pellet was resuspended in 200 μL of FACS buffer. Readings were performed using a FACScanto flow cytometer (BD) with 10,000 events, and histograms were acquired and analyzed using FCS Express software 2.0.
A general note: In flow cytometry, cells or beads pass a laser one at a time.

Experiment [4] has as its system SCC-9 tumor cells. Described as above. As to conditions: 24 h, IsCT-P and AC-AFPK-IsCT1 at IC50, others 100 µM, MitoRed, mean ± SD of three independent experiments. The protocol: as §4, §5

The term IC50 denotes the concentration that inhibits the measured activity by half. As to Ac-ALGKFWPKIKSLF-NH2 [AC-AFPK-IsCT1], the IC50 result in the experiment with FN1 cells was “did not exhibit cytotoxic effects; also recorded: N/IC50”; in the experiment on J774 cells it was “N/IC50”; with SCC-25 cells, 84.4 µM and 84.5 µM; with SCC-9 cells, 90.5 µM. In the experiment with SCC-25 tumor cells [1], the “decrease in the proliferative index” value was found to be 40.9 ± 2.5%. The “reduction in the proliferative index” value in the experiment on SCC-9 tumor cells [2] is on record as 61.6 ± 1.7%. The “decrease in ΔΨm” value with SCC-25 tumor cells [3] came out at 31.5 ± 5.4%; in the experiment with SCC-9 tumor cells [4], 16.3 ± 2.7%.
Regarding H-ILKKIWKPIKKLF-NH2 [IsCT-P], the concentration for half-maximal inhibition (IC50) in the experiment with FN1 cells (read-out: IC50) is 80.3 µM and 80.4 µM; in the experiment on J774 cells, “N/IC50”; in the experiment on SCC-25 cells, 81.3 µM; in the experiment with SCC-9 cells it was 96.5 µM. Also, the “decrease in the proliferative index” value in the experiment on SCC-25 tumor cells [1] is 61.1 ± 2.8%. For the same substance, the “reduction in the proliferative index” value in the experiment with SCC-9 tumor cells [2] was found to be 61.8 ± 8.7%. Besides, the “decrease in ΔΨm” value is 44.4 ± 4.8% in the experiment on SCC-25 tumor cells [3] and 21.2 ± 5.1% in the experiment on SCC-9 tumor cells [4].
